Columns and labels:
Cytochrome P450 2C9 = Cytochrome P450 2C9 (Homo sapiens, UniProt P11712); also: in other assays of this panel Not Active means under 50% inhibition at 10 µM
[1] = target: T1, 5-hydroxytryptamine receptor 2C (Homo sapiens, UniProt P28335); test: DRUGMATRIX: Serotonin (5-Hydroxytryptamine) 5-HT2C radioligand binding (ligand: [3H] Mesulergine); assay type: cell membranes, CHO-K1, Membrane; conditions: Not Active = under 50% inhibition at 10 µM; for Ki: read-out: Ki
T1 sequence (P28335 whole entry): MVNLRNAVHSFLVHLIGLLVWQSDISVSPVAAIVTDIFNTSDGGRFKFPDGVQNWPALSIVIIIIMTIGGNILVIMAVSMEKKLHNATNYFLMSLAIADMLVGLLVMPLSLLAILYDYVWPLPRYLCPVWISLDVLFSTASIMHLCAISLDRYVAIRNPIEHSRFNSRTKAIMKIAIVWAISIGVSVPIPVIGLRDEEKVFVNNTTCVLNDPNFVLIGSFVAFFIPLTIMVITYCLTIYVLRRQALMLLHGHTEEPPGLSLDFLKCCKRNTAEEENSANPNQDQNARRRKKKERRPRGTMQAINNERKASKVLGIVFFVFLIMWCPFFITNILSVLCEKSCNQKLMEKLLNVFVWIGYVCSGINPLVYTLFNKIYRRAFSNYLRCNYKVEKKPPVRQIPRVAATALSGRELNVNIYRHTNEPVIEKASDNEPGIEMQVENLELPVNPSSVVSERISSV

Cytochrome P450 1A2 = target: T2, Cytochrome P450 1A2 (Homo sapiens, UniProt P05177); also: in other assays of this panel Not Active means under 50% inhibition at 10 µM
T2 sequence (P05177 whole entry): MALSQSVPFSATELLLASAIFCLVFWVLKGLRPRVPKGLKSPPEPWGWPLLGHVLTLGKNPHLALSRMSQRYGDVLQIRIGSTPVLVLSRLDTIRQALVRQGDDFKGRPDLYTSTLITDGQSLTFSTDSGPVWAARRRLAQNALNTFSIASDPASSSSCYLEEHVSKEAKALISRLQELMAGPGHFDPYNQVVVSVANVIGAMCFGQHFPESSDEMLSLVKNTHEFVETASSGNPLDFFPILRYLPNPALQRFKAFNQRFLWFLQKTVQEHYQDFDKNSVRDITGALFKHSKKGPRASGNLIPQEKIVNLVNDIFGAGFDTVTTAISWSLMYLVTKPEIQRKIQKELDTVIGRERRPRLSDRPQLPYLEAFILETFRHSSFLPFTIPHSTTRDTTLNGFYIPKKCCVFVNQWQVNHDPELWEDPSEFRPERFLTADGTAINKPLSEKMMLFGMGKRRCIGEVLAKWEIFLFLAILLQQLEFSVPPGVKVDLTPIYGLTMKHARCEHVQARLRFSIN

[2] = target: 5-hydroxytryptamine receptor 2B (Homo sapiens, UniProt P41595); assay type: cell membranes, CHO-K1, Membrane; conditions: for Ki: read-out: Ki; as to all read-outs here: in other assays of this panel Not Active means under 50% inhibition at 10 µM
Cytochrome P450 2C19 = Cytochrome P450 2C19 (Homo sapiens, UniProt P33261); also: in other assays of this panel Not Active means under 50% inhibition at 10 µM
Cytochrome P450 2D6 = Cytochrome P450 2D6 (Homo sapiens, UniProt P10635); also: in other assays of this panel Not Active means under 50% inhibition at 10 µM
Androgen receptor [3] = target: T3, Androgen receptor (Rattus norvegicus, UniProt P15207); also: in other assays of this panel Not Active means under 50% inhibition at 10 µM
T3 sequence (P15207 whole entry): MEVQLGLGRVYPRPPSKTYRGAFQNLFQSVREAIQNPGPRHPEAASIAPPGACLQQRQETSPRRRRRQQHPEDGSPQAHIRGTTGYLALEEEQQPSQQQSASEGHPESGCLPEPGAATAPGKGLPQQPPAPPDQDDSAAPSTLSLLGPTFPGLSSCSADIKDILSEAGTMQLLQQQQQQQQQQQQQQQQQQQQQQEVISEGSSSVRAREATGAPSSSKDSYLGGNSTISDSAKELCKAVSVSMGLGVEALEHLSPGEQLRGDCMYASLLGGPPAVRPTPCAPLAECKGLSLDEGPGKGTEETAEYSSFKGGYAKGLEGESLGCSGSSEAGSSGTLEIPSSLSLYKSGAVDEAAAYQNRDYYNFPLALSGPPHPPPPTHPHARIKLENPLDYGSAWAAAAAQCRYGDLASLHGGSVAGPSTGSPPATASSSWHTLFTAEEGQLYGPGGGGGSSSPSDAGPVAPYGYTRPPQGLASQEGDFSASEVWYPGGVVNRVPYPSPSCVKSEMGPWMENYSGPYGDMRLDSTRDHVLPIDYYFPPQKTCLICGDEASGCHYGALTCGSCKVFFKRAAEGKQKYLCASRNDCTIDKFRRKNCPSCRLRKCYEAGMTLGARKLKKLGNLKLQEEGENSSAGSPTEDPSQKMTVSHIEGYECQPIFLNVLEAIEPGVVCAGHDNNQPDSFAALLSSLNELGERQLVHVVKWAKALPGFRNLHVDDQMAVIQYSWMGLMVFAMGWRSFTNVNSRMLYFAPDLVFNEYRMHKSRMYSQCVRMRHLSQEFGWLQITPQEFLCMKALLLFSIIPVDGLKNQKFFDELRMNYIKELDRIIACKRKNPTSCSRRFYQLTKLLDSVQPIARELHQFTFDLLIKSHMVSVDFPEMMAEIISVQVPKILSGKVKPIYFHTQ

Cytochrome P450 3A4 = Cytochrome P450 3A4 (Homo sapiens, UniProt P08684); conditions: bti-tn-5b1-4; also: in other assays of this panel Not Active means under 50% inhibition at 10 µM
Androgen receptor [4] = target: T3, Androgen receptor; remark: listed apart in the source
[5] = target: Voltage-gated inwardly rectifying potassium channel KCNH2 (Homo sapiens, UniProt Q12809); also: in other assays of this panel Not Active means under 50% inhibition at 10 µM
Voltage-gated inwardly rectifying potassium channel KCNH2, sequence (Q12809 whole entry): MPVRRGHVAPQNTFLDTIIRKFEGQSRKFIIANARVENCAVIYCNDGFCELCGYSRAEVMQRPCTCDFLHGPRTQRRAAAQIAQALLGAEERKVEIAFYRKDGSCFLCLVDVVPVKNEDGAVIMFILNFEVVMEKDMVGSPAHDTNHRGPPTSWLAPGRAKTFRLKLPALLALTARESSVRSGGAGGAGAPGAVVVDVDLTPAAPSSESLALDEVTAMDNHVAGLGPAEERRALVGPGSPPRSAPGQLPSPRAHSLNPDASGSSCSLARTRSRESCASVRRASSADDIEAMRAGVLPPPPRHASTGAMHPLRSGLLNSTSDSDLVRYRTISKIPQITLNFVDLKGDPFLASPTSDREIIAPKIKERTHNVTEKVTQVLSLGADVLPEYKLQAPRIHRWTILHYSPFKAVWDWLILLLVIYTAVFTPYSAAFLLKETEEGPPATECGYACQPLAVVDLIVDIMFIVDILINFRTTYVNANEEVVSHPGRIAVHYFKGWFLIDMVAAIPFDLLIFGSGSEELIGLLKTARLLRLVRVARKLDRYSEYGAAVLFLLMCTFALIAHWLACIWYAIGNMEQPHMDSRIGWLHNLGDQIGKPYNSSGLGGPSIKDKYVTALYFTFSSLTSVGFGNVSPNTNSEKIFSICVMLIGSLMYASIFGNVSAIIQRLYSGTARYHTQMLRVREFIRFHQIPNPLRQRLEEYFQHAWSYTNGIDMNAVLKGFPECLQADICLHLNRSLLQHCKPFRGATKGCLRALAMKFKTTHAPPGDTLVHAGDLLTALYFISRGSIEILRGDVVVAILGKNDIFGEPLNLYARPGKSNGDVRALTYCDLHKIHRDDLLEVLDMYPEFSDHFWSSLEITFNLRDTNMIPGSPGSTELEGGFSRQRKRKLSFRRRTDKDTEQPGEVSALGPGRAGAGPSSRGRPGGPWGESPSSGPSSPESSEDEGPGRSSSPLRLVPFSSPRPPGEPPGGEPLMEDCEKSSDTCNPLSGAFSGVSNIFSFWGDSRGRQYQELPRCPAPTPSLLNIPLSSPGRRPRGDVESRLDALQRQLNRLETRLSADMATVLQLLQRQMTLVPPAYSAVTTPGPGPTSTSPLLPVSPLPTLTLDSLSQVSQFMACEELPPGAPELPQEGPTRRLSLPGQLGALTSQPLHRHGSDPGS

Cytochrome P450 2C9, sequence (P11712 whole entry): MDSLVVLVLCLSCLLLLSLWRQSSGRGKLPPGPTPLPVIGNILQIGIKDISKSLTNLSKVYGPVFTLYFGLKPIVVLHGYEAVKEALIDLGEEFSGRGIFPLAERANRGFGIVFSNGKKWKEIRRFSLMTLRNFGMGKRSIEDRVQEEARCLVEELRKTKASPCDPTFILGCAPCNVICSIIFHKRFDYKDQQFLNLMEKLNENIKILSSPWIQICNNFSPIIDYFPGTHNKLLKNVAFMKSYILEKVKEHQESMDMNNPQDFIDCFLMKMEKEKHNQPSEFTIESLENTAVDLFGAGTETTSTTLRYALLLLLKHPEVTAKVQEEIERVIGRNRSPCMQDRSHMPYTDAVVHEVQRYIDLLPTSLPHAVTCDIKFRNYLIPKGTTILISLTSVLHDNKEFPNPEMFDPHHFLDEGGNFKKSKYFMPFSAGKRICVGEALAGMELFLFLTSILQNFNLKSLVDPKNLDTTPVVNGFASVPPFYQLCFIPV
5-hydroxytryptamine receptor 2B, sequence (P41595 whole entry): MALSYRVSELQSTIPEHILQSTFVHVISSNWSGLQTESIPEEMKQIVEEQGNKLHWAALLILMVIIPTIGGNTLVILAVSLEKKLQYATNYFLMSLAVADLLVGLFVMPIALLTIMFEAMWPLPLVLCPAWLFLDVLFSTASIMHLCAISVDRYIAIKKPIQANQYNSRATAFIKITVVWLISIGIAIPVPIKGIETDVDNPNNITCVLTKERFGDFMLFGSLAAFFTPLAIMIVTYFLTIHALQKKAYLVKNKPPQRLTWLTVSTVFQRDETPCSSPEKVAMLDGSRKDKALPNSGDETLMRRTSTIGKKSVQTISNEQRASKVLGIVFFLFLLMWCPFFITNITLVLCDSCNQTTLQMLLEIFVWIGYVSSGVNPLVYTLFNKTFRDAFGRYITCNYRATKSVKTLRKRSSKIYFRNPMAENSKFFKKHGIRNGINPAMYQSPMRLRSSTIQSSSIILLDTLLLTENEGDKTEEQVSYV
Cytochrome P450 2C19, sequence (P33261 whole entry): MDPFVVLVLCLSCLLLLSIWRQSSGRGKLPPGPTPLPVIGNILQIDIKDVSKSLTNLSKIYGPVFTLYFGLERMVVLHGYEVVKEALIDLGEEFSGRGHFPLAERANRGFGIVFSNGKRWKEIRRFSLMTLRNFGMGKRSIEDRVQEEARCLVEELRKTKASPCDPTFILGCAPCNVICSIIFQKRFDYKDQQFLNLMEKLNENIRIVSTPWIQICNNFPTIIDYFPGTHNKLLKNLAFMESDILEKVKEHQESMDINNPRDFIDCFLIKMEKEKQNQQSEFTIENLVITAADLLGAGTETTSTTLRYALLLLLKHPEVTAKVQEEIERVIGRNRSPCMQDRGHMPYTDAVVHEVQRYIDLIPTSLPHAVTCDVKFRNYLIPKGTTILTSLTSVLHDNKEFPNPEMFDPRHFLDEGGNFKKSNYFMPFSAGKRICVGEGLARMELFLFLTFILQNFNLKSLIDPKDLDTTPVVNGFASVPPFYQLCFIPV
Cytochrome P450 2D6, sequence (P10635 whole entry): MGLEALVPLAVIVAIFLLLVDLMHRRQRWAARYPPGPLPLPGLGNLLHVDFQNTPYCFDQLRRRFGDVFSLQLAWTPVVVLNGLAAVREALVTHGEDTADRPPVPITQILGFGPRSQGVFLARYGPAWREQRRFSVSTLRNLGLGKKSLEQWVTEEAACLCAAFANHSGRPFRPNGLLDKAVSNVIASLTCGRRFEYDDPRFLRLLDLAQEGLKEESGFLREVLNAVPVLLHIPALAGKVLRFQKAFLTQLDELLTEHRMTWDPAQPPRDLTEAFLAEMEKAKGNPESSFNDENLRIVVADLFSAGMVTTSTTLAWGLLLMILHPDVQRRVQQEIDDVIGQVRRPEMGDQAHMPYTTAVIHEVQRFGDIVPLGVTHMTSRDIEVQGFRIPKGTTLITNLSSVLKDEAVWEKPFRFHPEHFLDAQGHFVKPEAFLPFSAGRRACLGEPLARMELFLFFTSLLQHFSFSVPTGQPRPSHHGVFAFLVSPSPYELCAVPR
Cytochrome P450 3A4, sequence (P08684 whole entry): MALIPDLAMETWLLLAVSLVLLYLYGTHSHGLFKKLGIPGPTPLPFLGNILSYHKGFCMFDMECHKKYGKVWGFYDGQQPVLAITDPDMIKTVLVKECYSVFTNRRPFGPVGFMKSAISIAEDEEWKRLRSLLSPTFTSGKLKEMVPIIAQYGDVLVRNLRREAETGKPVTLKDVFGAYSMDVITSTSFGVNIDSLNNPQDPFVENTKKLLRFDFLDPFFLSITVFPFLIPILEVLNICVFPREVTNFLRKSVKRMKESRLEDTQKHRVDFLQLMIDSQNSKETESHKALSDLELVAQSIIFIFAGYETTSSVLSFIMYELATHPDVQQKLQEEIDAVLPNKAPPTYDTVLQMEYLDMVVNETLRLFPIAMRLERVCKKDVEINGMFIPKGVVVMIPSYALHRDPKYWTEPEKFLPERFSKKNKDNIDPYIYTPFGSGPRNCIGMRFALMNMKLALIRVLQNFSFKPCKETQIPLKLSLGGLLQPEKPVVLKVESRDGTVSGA

Row | Structure (SMILES) | IC50 (Cytochrome P450 2C9) [nM] | IC50 (Cytochrome P450 1A2) [nM] | IC50 (Cytochrome P450 2C19) [nM] | IC50 (Cytochrome P450 2D6) [nM] | IC50 ([1]; cho-k1) | IC50 ([2]; cho-k1) | IC50 (Androgen receptor [3]) | IC50 (Cytochrome P450 3A4) | Ki (Cytochrome P450 3A4) | other results
1 | CCOc1cc(N)c(Cl)cc1C(=O)NCC1CN(Cc2ccc(F)cc2)CCO1 (configuration not stated) [MOSAPRIDE] | 1000 | 400 | 1000 | – | – | – | – | – | – | IC50 ([1]; read-out: IC50): 397 nM; Ki [1]: 208 nM; IC50 ([2]; read-out: IC50): 296 nM; Ki [2]: 188 nM
2 | Nc1nc(N)c2nc(-c3ccccc3)c(N)nc2n1 | – | – | – | 10000 | Not Active | Not Active | Not Active | – | – | –
3 | CCN(CC)C(=S)SSC(=S)N(CC)CC | – | 4000 | – | – | Not Active | – | Not Active | Not Active | Not Active | –
4 | O=C(OC[C@H]1O[C@@H](OC(=O)c2cc(O)c(O)c(OC(=O)c3cc(O)c(O)c(O)c3)c2)[C@H](OC(=O)c2cc(O)c(O)c(OC(=O)c3cc(O)c(O)c(O)c3)c2)[C@@H](OC(=O)c2cc(O)c(O)c(OC(=O)c3cc(O)c(O)c(O)c3)c2)[C@@H]1OC(=O)c1cc(O)c(O)c(OC(=O)c2cc(O)c(O)c(O)c2)c1)c1cc(O)c(O)c(OC(=O)c2cc(O)c(O)c(O)c2)c1 [TANNIC ACID] | 4610 | 919 | – | – | Not Active | Not Active | – | Not Active | Not Active | –
5 | C=CCc1ccc2c(c1)OCO2 [SAFROLE] | – | 10000 | – | – | Not Active | Not Active | – | Not Active | Not Active | –
6 | C#C[C@]1(O)CC[C@H]2[C@@H]3[C@H](C)CC4=C(CCC(=O)C4)[C@H]3CC[C@@]21C [TIBOLONE] | – | – | 3000 | – | Not Active | Not Active | – | Not Active | Not Active | –
7 | CCOC(=O)C1=C(C)NC(C)=C(C(=O)OCC)C1c1ccccc1/C=C/C(=O)OC(C)(C)C [LACIDIPINE] | 2000 | – | 2000 | – | Not Active | Not Active | – | – | – | IC50 (Androgen receptor [4]): 3920 nM; Ki (Androgen receptor [4]): 2610 nM
8 | Cc1cc2c(s1)Nc1ccccc1N=C2N1CCN(C)CC1 [OLANZAPINE] | – | – | – | – | – | – | – | Not Active | Not Active | IC50 [5]: 100000 nM
9 | CCN(CC)CCNC(=O)c1cc(Cl)c(N)cc1OC [METOCLOPRAMIDE] | – | – | – | 800 | – | – | – | Not Active | Not Active | IC50 ([1]; read-out: IC50): 2380 nM; Ki [1]: 1250 nM; IC50 ([2]; read-out: IC50): 630 nM; Ki [2]: 401 nM
10 | CC[C@H](C)[C@@H](CO[C@@H](Cc1ccccc1)C(=O)N[C@@H](CCS(C)(=O)=O)C(=O)OC(C)C)NC[C@@H](N)CS | – | – | – | 700 | Not Active | Not Active | Not Active | – | – | –

Reference: ChEMBL document CHEMBL1909046, “DrugMatrix in vitro pharmacology data”
